B1: hLAL: human lysosomal acid lipase expressed from a doxycycline-controlled tissue-specific transgene in lal−/− mice; never administered as a protein (protein)
chain: GPKPVVFLQHGLLADSSNWVTNLANSSLGFILADAGFDVWMGNSRGNTWSRKHKTLSVSQDEFWAFSYDEMAKYDLPASINFILNKTGQEQVYYVGHSQGTTIGFIAFSQIPELAKRIKMFFALGPVASVAFCTSPMAKLGRLPDHLIKDLFGDKEFLPQSAFLKWLGTHVCTHVILKELCGNLCFLLCGFNERNLNMSRVDVYTTHSPAGTSVQNMLHWSQAVKFQKFQAFDWGSSAKNYFHYNQSYPPTYNVKDMLVPTAVWSGGHDWLADVYDVNILLTQITNLVFHESIPEWEHLDFIWGLDAPWRLYNKIINLMRKYQ
modifications: left off: small tags and cut ends
notes: human lysosomal acid lipase expressed from a doxycycline-controlled tissue-specific transgene in lal−/− mice; never administered as a protein

Key:
Ly6G+ MDSCs = test: Transwell assay of MDSC transendothelial migration; assay type: cell-based, mouse; settings: lal−/− Ly6G+ cells pre-treated 20 μmol/L 48 hours; four hours; vs ethanol
Procedure: Transwell assay was used to determine MDSC transendothelial migration. SVECs were added to the upper chamber of 24-well 8.0-μm-pore Transwell plates (Corning, Corning, N.Y., USA), and incubated at 37° C., 5% CO2 for 48 hours to form an EC monolayer. The supernatant was then removed, and CellTracker™ Green 5-Chloromethylfluorescein Diacetate (CMFDA) (Invitrogen, Grand Island, N.Y., USA)-labeled MDSCs (2×10^4 cells in 200 μL media) were added to the upper well. After 4 hours, transendothelial migration of MDSCs was determined by counting their numbers in the lower chamber under 5 random microscopic fields.

B16 melanoma cells = test: Mouse metastasis model, pre-treated MDSCs co-injected intravenously with B16 melanoma cells; assay type: in vivo; settings: two weeks
Procedure: The tumor growth and metastasis model were described in Zhao et al., Oncogene. 2015; 34:1938-48. MDSCs and B16 melanoma cells were collected separately. A pilot study was performed to determine the best ratio between MDSCs and B16 melanoma cells. To test the tumor growth potential, 6×10^5 pre-treated MDSCs and 2×10^5 B16 melanoma cells were mixed, centrifuged and re-suspended in 100 μL PBS, and then injected subcutaneously into the flank region of 3-month old recipient lal^+/+ mice. Tumor volume (length×width^2×π/6) was monitored every week for 4 weeks. To test the metastasis potential, 2×10^6 pre-treated MDSCs and 5×10^5 B16 melanoma cells were mixed and incubated at 37° C., 5% CO2 for 30 minutes. After the incubation, cells were centrifuged, re-suspended, and injected intravenously into 3-month old lal^+/+ mice. Two weeks after the injection, the mice were sacrificed and the lungs were inflated with 4% paraformaldehyde for examination of metastasis.
The harvested lungs were fixed with 4% paraformaldehyde in PBS at 4° C. for overnight. After fixation and embedding in paraffin, tissue sections were cut to 5 μm thick. Hematoxylin and eosin (H&E) staining and immunohistochemical (IHC) staining with anti-Ki67 antibody were performed by the Histological Core Facility, Department of Pathology and Laboratory Medicine, Indiana University. Images were taken by Olympus microscopy image system (Olympus, Tokyo, Japan).

[1] = tested on: Lewis lung cancer (LLC) cells; test: In vitro co-culture of pre-treated MDSCs and LLC cells; assay type: cell-based, mouse; settings: lal−/− Ly6G+ cells pre-treated 20 μmol/L 24 hours; 72 hours co-culture
Ly6G+CD11b+ cells = test: Flow cytometry of Ly6G+CD11b+ cells in CCSP-Tg/KO mice; assay type: in vivo, mouse
Procedure: For immune cell profile analysis, single cells from the lung, bone marrow, spleen and blood of lal^+/+, lal^−/− and CCSP-Tg/KO triple mice were prepared. Cells were labeled with isotype control or surface-specific primary antibodies at 4° C. for 15 minutes, and then washed and ready for flow cytometry analysis. Anti-CD11b (M1/70) PE-Cyanine7 and anti-Ly6G (RB6-8c5) APC-eFluor® 780 were purchased from eBiosciences (San Diego, Calif., USA). For characterization of tissue-specific expression of the hLAL transgene, single cells from the lungs of lal^+/+, lal^−/− and CCSP-Tg/KO triple mice were prepared and stained. Surfactant protein C (SP-C, AT II epithelial cell marker) Ab and Flag Ab were purchased from Santa Cruz Biotechnology (Dallas, Tex., USA) and Sigma-Aldrich (St. Louis, Mo., USA), respectively. In gated SP-C^+ cells, the number of the Flag^+ cells were analyzed by flow cytometry and calculated based on M1, which is defined by isotype control. Whole spleen cells were used as a control, in which the number of the Flag^+ cells was analyzed. For flow cytometry analysis, ≥30,000 cells were acquired and scored using a LSRII machine (BD Biosciences, San Jose, Calif., USA). Data were processed using the CellQuest software program (BD Biosciences).

[2] = tested on: pulmonary endothelial cells (ECs); test: In vitro BALF treatment of pulmonary endothelial cells (proliferation, wound healing); assay type: cell-based, mouse
Procedure: ECs were isolated from lal^+/+ lungs and cultured in vitro. Briefly, the mouse was anesthetized and 1 mL collagenase A (2 mg/mL, Roche, Indianapolis, Ind., USA) was infused into the lung through the trachea. The lung was removed and then incubated with 10 mL collagenase A at 37° C. for 30 minutes. After the incubation, the resulting cell suspension was filtered through a 40 μm strainer and centrifuged for 5 minutes at 1,500 rpm. After removal of the supernatant, the cell pellet was subjected to magnetic bead sorting using anti-CD31 microbeads (Miltenyi Biotec., Auburn, Calif., USA) according to the manufacturer's protocol. The resulting cells were plated onto gelatin-coated (Sigma-Aldrich) 6-well plates and maintained in DMEM supplemented with endothelial cell growth supplement, heparin, L-Glutamine (Sigma-Aldrich), FBS, and Antibiotic-Antimycotic (Gibco).
To examine the effect of BALF on EC proliferation, 5×10^4 ECs were seeded into a well of 24-well plates in 250 μL DMEM supplemented with 10% FBS, and then treated with 250 μL BALF harvested from lal^+/+, lal^−/− or CCSP-Tg/KO triple mice. Seventy-two hours later, the number of ECs was counted.
To analyze the effects of BALF on tumor cell or EC migration, in vitro wound healing assays were performed. […]

[3] = pre-treated lal−/− Ly6G+ cells + B16 i.v.
[4] = doxycycline-treated CCSP-Tg/KO mice

Molecule | Ly6G+ cells migrated across endothelial monolayer (Ly6G+ MDSCs) | B16 melanoma colonization in the lung (B16 melanoma cells; pre-treated lal+/+ Ly6G+ cells + B16 i.v.) | B16 melanoma colonies in the lungs (B16 melanoma cells; pre-treated lal−/− Ly6G+ cells + B16 i.v. into lal+/+ mice, vs ethanol) | Ki67 positive cells in lung sections (IHC staining) (B16 melanoma cells; [3]) | neoplastic cells in lung sections (H&E staining) (B16 melanoma cells; [3]) | proliferation of LLC cells upon co-culture [1] | percentage of Ly6G+CD11b+ cells in the lung (Ly6G+CD11b+ cells; doxycycline-treated (hLAL on) vs untreated CCSP-Tg/KO mice) | Ly6G+CD11b+ cell accumulation in the blood (Ly6G+CD11b+ cells; [4]) | Ly6G+CD11b+ cells in the spleen and bone marrow (Ly6G+CD11b+ cells; [4]) | EC migration (wound healing) ([2]; BALF from doxycycline-treated CCSP-Tg/KO mice, 15 hours, mitomycin C) | EC proliferation ([2]; lal+/+ ECs with BALF from doxycycline-treated CCSP-Tg/KO mice, 72 hours)
9-hydroxyoctadecadienoic acid [9-HODE] | less Ly6G^+ cells in the lower chamber | did not affect B16 melanoma colonization in the lung | less B16 melanoma colonies | less Ki67 positive cells | less neoplastic cells | reduced proliferation of LLC cells | – | – | – | – | –
B1 | – | – | – | – | – | – | significantly decreased | reduced | no reversing effect | decreased EC migration | decreased EC proliferation
